Experimental data taken from patent publication US10660967B2, “Curcumin conjugates and methods of use thereof” (priority 2016, dated 2020).
Where two headings read alike, the source gives them in different places.

How the values were obtained:
[1] = system: Salmonella typhi ATCC19430; test: Antimicrobial MIC, agar dilution; type: cell-based; details: Salmonella enterica, read-out: Minimum inhibitory concentration (MIC)
[2] = system: PC3 (prostate) carcinoma cell line; test: Anti-tumor properties, MTT; type: cell-based; details: Homo sapiens
[3] = system: PHA-stimulated splenocytes; test: Proliferative response of PHA-stimulated splenocytes (MTT assay); type: cell-based; details: PHA 5 μg/ml, 72 hr; compounds at 5 μM (method says 10 μM); ratio of O.D. versus vehicle control
Procedure, shortened: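 Readout was MTT absorbance (570 nm, reference 690 nm) after 72 h culture at 37° C. Splenocytes at 1×10^6 cells/well received test compound (10 μM final) alone or plus PHA 5 μg/ml as T-cell mitogen. Values are OD ratios of compound over vehicle control (stimulation index).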

[4] = system: Candida albicans (local isolate); test: Antimicrobial MIC, agar dilution; details: Candida albicans, read-out: Minimum inhibitory concentration (MIC)
[5] = system: Streptococcus pyogenes ATCC19615; test: Antimicrobial MIC, agar dilution
[6] = system: Staphylococcus aureus ATCC25923; test: Antimicrobial MIC, agar dilution
[7] = system: Pseudomonas aeruginosa ATCC27853; test: Antimicrobial MIC, agar dilution
[8] = system: MCF7 (breast) carcinoma cell line; test: Anti-tumor properties, MTT; type: cell-based; details: Homo sapiens; for activity at 100 µM: read-out: Percentage growth of tumor cell lines treated with the tested compounds (±SD)
Procedure, shortened: (§1)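 Cells seeded at 10×10^3 per well for 24 h, then exposed to compound in serum-free medium (final up to 100 μM, 0.5% DMSO vehicle) for 72 h in triplicate. Viability by MTT reduction (4 h, SDS solubilised), absorbance 595 nm/ref 620 nm; IC50 from survival curves.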

[9] = system: HepG2 (hepatocellular) carcinoma cell line; test: Anti-tumor properties, MTT; type: cell-based; details: Homo sapiens; for activity at 100 µM: read-out: Percentage growth of tumor cell lines treated with the tested compounds (±SD)
Procedure, shortened: as §1

[10] = system: HCT116 (colon) carcinoma cell line; test: Anti-tumor properties, MTT; type: cell-based; details: Homo sapiens; for IC50: read-out: IC50 (μM) HCT116 (colon); for activity at 100 µM: read-out: Percentage growth of tumor cell lines treated with the tested compounds (±SD)
Procedure, shortened: as §1

[11] = system: A-549 (lung) carcinoma cell line; test: Anti-tumor properties, MTT; type: cell-based; details: Homo sapiens, A549
MCF-7 cells = test: Effect on doxorubicin induced cytotoxicity (MTT); details: for Percentage of viable cells MCF-7 (average ± SD): 10 μM DOX in combination with 100 μM curcumin derivative; for viability at 100 µM: Homo sapiens, MCF7, 48 h
Procedure, shortened: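 MCF-7 cells were exposed for 48 hr to 100 μM curcumin derivative alone or combined with 10 μM doxorubicin. Controls got medium, DMSO vehicle, or vehicle+doxorubicin. Percent viable cells was read by MTT assay.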

[12] = system: lipopolysaccharide-stimulated peritoneal macrophages; test: Production of nitric oxide by lipopolysaccharide-stimulated peritoneal macrophages (Greiss reagent); type: cell-based; set-up: Potency (%): % inhibition of nitric oxide production relative to lipopolysaccharide-stimulated macrophages: concentration or dose not given beside the values; details: LPS-stimulated peritoneal macrophages; for Nitric oxide (nitrite) concentration, μM (average ± SD): 24 h, nitrite by Greiss reagent
Procedure, shortened: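 NO output was quantified as accumulated nitrite, reacting supernatant with Greiss reagent (sulfanilamide/α-naphthylamine) and reading at 532 nm. Beforehand, cells had been incubated 24 h at 37° C. in nitrite-free, 0.1% BSA medium with 0.5–10 ng/ml LPS, with or without catecholamines at […].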

gastric mucosa = test: Ulcerogenic liability (ulcer index); type: in vivo, albino mice
Experimental: The ulcerogenic liability was investigated in albino mice using the standard method. […] The animals were fasted 18 h before drug administration. […] The control group animals were given saline solution only with few drops of Tween 80. […] The gastric mucosa was examined with a magnifying lens (10×) for the presence of lesions and erosions.
1. percentage incidence of ulcer divided by 10;
2. average number of ulcers per stomach; and
3. average severity of ulcers;

[13] = ATCC19615, 18 h, read-out: Minimum inhibitory concentration (MIC)
[14] = ATCC19615, read-out: Minimum inhibitory concentration (MIC)
[15] = ATCC25923, 18 h, read-out: Minimum inhibitory concentration (MIC)
[16] = ATCC25923, read-out: Minimum inhibitory concentration (MIC)
[17] = ATCC27853, 18 h, read-out: Minimum inhibitory concentration (MIC)
[18] = ATCC27853, read-out: Minimum inhibitory concentration (MIC)
[19] = MCF7, read-out: IC50 (μM) MCF7 (breast)
[20] = HepG2, read-out: IC50 (μM) HepG2 (liver)
[21] = read-out: Percentage of viable cells MCF-7 (average ± SD)
[22] = orally, three successive days, 10 mg/kg indomethacin mol equivalent
[23] = orally, three successive days, 10 mg/kg indomethacin mol equivalent, 6 animals per group
[24] = sum of the three values, orally, three successive days, 10 mg/kg indomethacin mol equivalent
[25] = both, albino, mouse, in vivo, po, 10 mg/kg, 3 days

| SMILES | MIC ([1]; 18 h) | MIC [1] | Stimulation Index (average ± SD) [3] | MIC ([4]; 18 h) | MIC [4] | MIC [5, 13] | MIC [5, 14] | MIC [6, 15] | MIC [6, 16] | MIC [7, 17] | MIC [7, 18] | Percentage of viable cells MCF-7 (average ± SD) (MCF-7 cells; 48 hr) | viability at 100 µM (MCF-7 cells; [21]) | Potency (%): % inhibition of nitric oxide production relative to lipopolysaccharide-stimulated macrophages [12] | Nitric oxide (nitrite) concentration, μM (average ± SD) [12] | % Incidence of ulcer divided by 10 (gastric mucosa; [22]) | Average of ulcer number (gastric mucosa; [22]) | Average severity of ulcer (gastric mucosa; [22]) | Number of animals with ulcer (gastric mucosa; [23]) | Ulcer index (gastric mucosa; [24]) | also measured |
| --- | --- | --- | --- | --- | --- | --- | --- | --- | --- | --- | --- | --- | --- | --- | --- | --- | --- | --- | --- | --- | --- |
| COc1cc(/C=C/C(=O)CC(=O)/C=C/c2ccc(OC(=O)[C@H](Cc3ccccc3)NC(=O)OC(C)(C)C)c(OC)c2)ccc1OC(=O)[C@H](Cc1ccccc1)NC(=O)OC(C)(C)C [Boc-L-Phe-Cur, ((1E,6E)-3,5-dioxohepta-1,6-diene-1,7-diyl)bis(2-methoxy-4,1-phenylene) (2S,2′S)-bis(2-((tert-butoxycarbonyl)amino)-3-phenylpropanoate)] | 0.25 µg/mL | 0.29 µM | 2.56 ± 0.14 | 1 µg/mL | 1.16 µM | 0.125 µg/mL | 0.145 µM | 0.25 µg/mL | 0.29 µM | 1 µg/mL | 1.16 µM |  |  |  |  |  |  |  |  |  | IC50 [2]: > 100 µM; IC50 [8, 19]: > 100 µM; IC50 [9, 20]: > 100 µM; IC50 ([10]; HCT-116): > 100 µM; IC50 [11]: > 100 µM |
| COc1cc(/C=C/C(=O)CC(=O)/C=C/c2ccc(OC(=O)[C@H](CCSC)NC(=O)OCc3ccccc3)c(OC)c2)ccc1OC(=O)[C@H](CCSC)NC(=O)OCc1ccccc1 [Cbz-Met-Cur, ((1E,6E)-3,5-dioxohepta-1,6-diene-1,7-diyl)bis(2-methoxy-4,1-phenylene) (2S,2′S)-bis(2-(((benzyloxy)carbonyl)amino)-4-(methylthio)butanoate)] | 0.125 µg/mL | 0.139 µM | 1.22 ± 0.29 | 2 µg/mL | 2.23 µM | 0.125 µg/mL | 0.139 µM | 0.125 µg/mL | 0.139 µM | 0.125 µg/mL | 0.139 µM | 49.74 ± 0.33 | 96.3 ± 3.61% | 44.44% | 15.17 ± 2.30 µM | 3.33 | 0.33 | 0.33 | 2/6 | 3.99 | activity at 100 µM ([8]; MCF7, 100 μM, 72 h): 71%; activity at 100 µM ([9]; HepG2, 100 μM, 72 h): 85.4 ± 2.4%; activity at 100 µM ([10]; HCT-116, HCT116, 100 μM, 72 h): 85.6 ± 2.4% |
| COc1cc(/C=C/C(=O)CC(=O)/C=C/c2ccc(O)c(OC)c2)ccc1O [Curcumin, (1E,6E)-1,7-bis(4-hydroxy-3-methoxyphenyl)hepta-1,6-diene-3,5-dione] | 0.125 µg/mL | 0.339 µM | 1.52 ± 0.10 | 0.125 µg/mL | 0.339 µM | 0.125 µg/mL | 0.339 µM | 0.125 µg/mL | 0.339 µM | 0.125 µg/mL | 0.339 µM |  |  | 37.11% | 17.18 ± 0.65 µM |  |  |  |  |  | viability at 100 µM (MCF-7 cells; read-out: Percentage of viable cells MCF-7 (average ± SD), 0 μM DOX, 100 μM curcumin derivative alone, 48 hr): 10.8 ± 4.7%; viability at 100 µM (MCF-7 cells; read-out: Percentage of viable cells MCF-7 (average ± SD), 10 μM DOX in combination with 100 μM curcumin derivative, 48 hr): 3.16 ± 1.62%; % Incidence of ulcer divided by 10 (gastric mucosa; [25]): 3.33; Average of ulcer number (gastric mucosa; [25]): 0.33; Average severity of ulcer (gastric mucosa; [25]): 0.33; Number of animals with ulcer (gastric mucosa; [25]): 2/6; Ulcer index (gastric mucosa; [25]): 3.99; IC50 ([8]; MCF7, 72 h): 16 µM; activity at 100 µM ([8]; MCF7, 72 h): 4.6 ± 0.2%; IC50 ([9]; HepG2, 72 h): 38 µM; activity at 100 µM ([9]; HepG2, 72 h): 0.4%; activity at 100 µM ([10]; HCT-116, 72 h): 2.4 ± 3.4% |
| COc1cc(/C=C/C(=O)CC(=O)/C=C/c2ccc(OC(=O)CNC(=O)OCC3c4ccccc4-c4ccccc43)c(OC)c2)ccc1OC(=O)CNC(=O)OCC1c2ccccc2-c2ccccc21 [Fmoc-Gly-Cur, ((1E,6E)-3,5-dioxohepta-1,6-diene-1,7-diyl)bis(2-methoxy-4,1-phenylene) bis(2-((((9H-fluoren-9-yl)methoxy)carbonyl)amino)acetate)] | 1 µg/mL | 1.08 µM | 1.76 ± 0.20 | 2 µg/mL | 2.16 µM | 1 µg/mL | 1.08 µM | 1 µg/mL | 1.08 µM | 1 µg/mL | 1.08 µM | 30.35 | 98.4 ± 1.46% | 31.43% | 18.73 ± 1.29 µM | 0 | 0 | 0 | 0/6 | 0 | activity at 100 µM ([8]; MCF7, 100 μM, 72 h): 87 ± 1.5%; activity at 100 µM ([9]; HepG2, 100 μM, 72 h): 82.1 ± 7%; activity at 100 µM ([10]; HCT-116, HCT116, 100 μM, 72 h): 95.8 ± 6.7% |
| COc1cc(/C=C/C(=O)CC(=O)/C=C/c2ccc(OC(=O)[C@H](CCSC)NC(=O)OCC3c4ccccc4-c4ccccc43)c(OC)c2)ccc1OC(=O)[C@H](CCSC)NC(=O)OCC1c2ccccc2-c2ccccc21 [Fmoc-Met-Cur, ((1E,6E)-3,5-dioxohepta-1,6-diene-1,7-diyl)bis(2-methoxy-4,1-phenylene) (2S,2′S)-bis(2-((((9H-fluoren-9-yl)methoxy)carbonyl)amino)-4-(methylthio)butanoate)] | 2 µg/mL | 1.86 µM | 1.07 ± 0.16 | 0.5 µg/mL | 0.465 µM | 0.125 µg/mL | 0.116 µM | 0.25 µg/mL | 0.233 µM | 2 µg/mL | 1.86 µM | 38.75 ± 1.65 | 99.3 ± 3.16% | 47.91% | 14.23 ± 1.05 µM | 0 | 0 | 0 | 0/6 | 0 | activity at 100 µM ([8]; MCF7, 100 μM, 72 h): 88.9 ± 5%; activity at 100 µM ([9]; HepG2, 100 μM, 72 h): 92.4 ± 5.1%; activity at 100 µM ([10]; HCT-116, HCT116, 100 μM, 72 h): 96.4 ± 1.4% |
| COc1cc(/C=C/C(=O)CC(=O)/C=C/c2ccc(OC(=O)[C@H](CCC(N)=O)NC(=O)OCc3ccccc3)c(OC)c2)ccc1OC(=O)[C@H](CCC(N)=O)NC(=O)OCc1ccccc1 [Z-L-Gln-Cur, ((1E,6E)-3,5-dioxohepta-1,6-diene-1,7-diyl)bis(2-methoxy-4,1-phenylene) (2S,2′S)-bis(5-amino-2-(((benzyloxy)carbonyl)amino)-5-oxopentanoate)] | 0.5 µg/mL | 0.56 µM | 2.37 ± 0.16 | 0.5 µg/mL | 0.56 µM | 0.125 µg/mL | 0.14 µM | 0.5 µg/mL | 0.56 µM | 1 µg/mL | 1.12 µM |  |  |  |  |  |  |  |  |  | IC50 [2]: 90.7 µM; IC50 [8, 19]: 10.2 µM; IC50 [9, 20]: > 100 µM; IC50 ([10]; HCT-116): > 100 µM; IC50 [11]: 46.1 µM |
